# Tests used:
# E. coli MenE (ecMenE) = E. coli MenE (ecMenE) (Escherichia coli, UniProt P37353); assay type: biochemical
# B. subtilis (ATCC 6057) = assay: Antibacterial activity; assay type: cell-based
# ecMenE (wild-type) = ecMenE (wild-type) (Escherichia coli, UniProt P37353); assay: Isothermal titration calorimetry, wild-type ecMenE; details: ITC, wt ecMenE
# [1] = tested on: methicillin-resistant S. aureus (ATCC BAA-1762); assay: Antibacterial activity; assay type: cell-based
# [2] = tested on: methicillin-resistant S. aureus (ATCC BAA-1762); assay: Growth rescue: MIC with exogenous MK4, MRSA; assay type: cell-based; details: exogenous 10 μg/mL MK4 added to the synthetic growth media
# [3] = tested on: Vero (monkey kidney epithelial) cells; assay: Cytotoxicity, Trypan Blue; assay type: cell-based; details: minimum concentration giving ~90% cell death
# [4] = tested on: B. subtilis, MRSA and M. tuberculosis; assay: Antibacterial activity; assay type: cell-based; details: summary in text over B. subtilis, MRSA (S. aureus)
# M. tuberculosis (H37Rv) [5] = assay: Antibacterial activity; assay type: cell-based
# M. tuberculosis (H37Rv) [6] = assay: Growth rescue: MIC with exogenous MK4, M. tuberculosis; assay type: cell-based; details: exogenous 10 μg/mL MK4 added to the synthetic growth media
# E. coli (K-12) = assay: Antibacterial activity; details: aerobic, MIC-99 by visual inspection
# [7] = tested on: menaquinone levels in S. aureus; assay: Quantification of menaquinone levels by LC-MS/MS; assay type: cell-based
# pKa of the OSB analogue = pKa of the OSB analogue (side chain)
# Sequence of E. coli MenE (ecMenE) (P37353 whole entry): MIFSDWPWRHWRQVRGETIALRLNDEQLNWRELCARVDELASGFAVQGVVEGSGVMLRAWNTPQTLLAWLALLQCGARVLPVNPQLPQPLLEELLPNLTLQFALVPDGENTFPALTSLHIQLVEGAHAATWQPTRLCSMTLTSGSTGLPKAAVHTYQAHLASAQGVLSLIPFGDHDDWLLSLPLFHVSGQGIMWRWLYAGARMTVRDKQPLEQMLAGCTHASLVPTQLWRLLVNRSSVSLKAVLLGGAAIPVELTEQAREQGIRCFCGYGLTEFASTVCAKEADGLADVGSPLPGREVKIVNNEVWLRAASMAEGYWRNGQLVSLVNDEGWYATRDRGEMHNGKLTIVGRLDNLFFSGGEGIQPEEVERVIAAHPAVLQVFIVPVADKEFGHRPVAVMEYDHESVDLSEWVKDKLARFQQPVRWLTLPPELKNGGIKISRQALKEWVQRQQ
# Sequence of ecMenE (wild-type) (P37353 whole entry): as above
compound,measurement,setting,value
"O=C(O)CCC(=O)c1ccccc1C(=O)O [OSB, o-succinylbenzoate]",Km,"E. coli MenE (ecMenE); read-out: KM OSB, wt ecMenE, pH 7.4, 25°C",1 ± 0.02 µM
same,kcat,"E. coli MenE (ecMenE); wt ecMenE, substrate OSB",0.767 ± 0.002 s⁻¹
"Nc1ncnc2c1ncn2[C@@H]1O[C@H](COS(=O)(=O)NC(=O)CCC(=O)c2ccccc2C(=O)O)[C@@H](O)[C@H]1O [compound 1, OSB-AMS]",MIC,B. subtilis (ATCC 6057),62.5 µg/mL
same,ΔG,ecMenE (wild-type),-10.0 kcal/mol
same,ΔH,ecMenE (wild-type),-2.0 ± 0.1 kcal/mol
same,Kd,ecMenE (wild-type); read-out: Kd OSB-AMS,44 ± 11 nM
same,MIC,[1]; MRSA (ATCC BAA-1762),31.25 µg/mL
same,antibacterial activity lower than the IC50 for enzyme inhibition,[1]; antibacterial activity vs enzyme IC50,~ 1000 fold
same,MIC + MK4,[2],> 250 µg/mL
same,Cytotoxicity,[3],125 µg/mL
same,MIC,[4],30 to 125 µg/mL
same,MIC,M. tuberculosis (H37Rv) [5],125 µg/mL
same,MIC + MK4,M. tuberculosis (H37Rv) [6],> 250 µg/mL
same,MIC,E. coli (K-12),> 500 µg/mL
same,decrease in MK levels,"[7]; MRSA, 15.6 μM OSB-AMS (half-MIC)",~ 60%
same,decrease in the levels of all menaquinones,[7]; S. aureus treated with OSB-AMS below its MIC,3–5 fold
MSB-AMS [compound 2],effect on MenE activity,E. coli MenE (ecMenE),did not affect MenE activity
same,inhibition of ecMenE,E. coli MenE (ecMenE),no inhibition
same,pKa,pKa of the OSB analogue,4
